{"source": "patent US7846434B2", "about": "“Materials and methods for improved immunoglycoproteins” (Trubion Pharmaceuticals, Inc., priority 2006, dated 2010)", "key": {"[1]": {"tested_on": "human CD16 (low affinity polymorphism), FcγRIIIa", "experiment": "Simultaneous binding of TRU-016 to CD37 (Daudi cells) and CD16:MuIgGFc fusion", "protocol": "TRU-016 produced as described in Example 8 was tested in the following assay, which simultaneously evaluates the ability of the TRU-016 binding domain to bind to a CD37 expressing target cell and the ability of the Fc portion of the TRU-016 SMIP to bind a fusion protein of human CD16 and murine IgG Fc.\nThe target cell utilized is the Daudi (ATCC CRL-213) cell line. Daudi cells are a human B-lymphoblastoid cell line derived from a Burkitt's lymphoma and express high levels of CD37. The custom soluble CD16:MuIgGFc fusion protein is human CD16 (low affinity polymorphism) linked to a murine IgG Fc.\nThe appropriate number of Daudi cells (350,000/well times the number of wells) is aliquoted and centrifuged at 250×g for 5 minutes at 15° C. The supernatant is removed. One percent cold paraformaldehyde is prepared by diluting the 4% stock from USB (USB US19943) 1:4 with FACS Buffer. FACS Buffer is prepared by adding 2% FBS (Gibco) to Dulbecco's PBS (Invitrogen) (v/v) and sterile filtering with a 0.22 μm filter. FACS Buffer is stored and used at 4° C. […]\nEach sample's bound fluorescence is measured on a BD FACSCalibur flow cytometry system and analyzed with Cell Quest Pro software (Becton Dickinson, ver 5.2). The GeoMean fluorescence intensity for each sample is plotted relative to the TRU-016 concentration. […]"}, "[2]": {"tested_on": "CHO-K1 cells transfected with TRU-016", "experiment": "Effect of castanospermine on CHO-K1 TRU-016 production, shake flasks", "format": "cell-based, Chinese hamster", "conditions": "for Average TRU-016 Produced (μg/mL) ± SD: duplicate flasks; for Viability at Harvest (%): harvest day 10, listed as CS", "protocol": "Prior to initiation of the experiments, CHO-K1 cells transfected with TRU-016 (CAS029f053) were grown in vented shake flasks in CD-CHO chemically-defined media (GIBCO-Invitrogen) supplemented with 25 uM methionine sulfoximine (MSX) at 37° C. and 5% carbon dioxide in a humidified incubator. Shaker speed was set at 125 RPM. A 400 mM stock concentration of castanospermine (Alexis Biochemicals) was prepared by dilution of the CS in sterile, distilled/deionized water (MediaTech) followed by filtration through a 13 mm Acrodisc® with a 0.2 μm HT Tuffryn membrane (Pall Corporation). Stock solution was aliquoted into sterile, O-ringed, 0.5 mL microcentrifuge tubes (Fisherbrand, Fisher Scientific) and frozen at −20° C. Approximately 1 hour prior to initiation of experiments, needed aliquots were thawed at room temperature and the contents of each vial mixed well by vortexing.\nFor the experiment, cells in log phase growth were seeded in the above medium into a volume of 60 mL in 250 mL shaker flasks at a density of 220,000 cells/mL and CS added at the concentration to be tested. Final CS concentrations of 800 μM, 400 μM, 200 μM, 100 μM, 50 μM, 25 μM and 0 μM were each tested in duplicate flasks. All shake flasks were incubated on a shaker platform set at 125 RPM at 37° C. and 5% carbon dioxide in a humidified incubator. Cultures were monitored at least every other day for viable cell density and overall cell viability.\nCultures were harvested on day 10 when overall cell viability was 49-62%. Cells and cellular debris were removed by centrifugation in a Sorvall Super T21 at 3000 rpm for 20 minutes after which the supernatant was sterile filtered through a Millipore Steriflip unit with a 0.22 μm Millipore Express Plus membrane and stored at 4° C. until purified."}}, "note": "Where “and” joins values, the source holds several entries; their conditions need not be identical. Equal values may be shown once.", "data": [{"compound": "O[C@H]1[C@H](O)[C@@H](O)CN2CC[C@H](O)[C@H]12", "note": "[castanospermine]", "values": [{"measurement": "maximal improvement in TRU-016 glycovariant binding to CD16", "setting": "[1]; CHO-K1 produced, CS concentrations of 100 μM or greater", "value": "approximately 7 fold"}, {"measurement": "binding to CD16 (GeoMean fluorescence, D-parameter) of DG44 CHO produced TRU-016", "setting": "[1]; relative to concentration of CS up to 400 μM, then levels off", "value": "dose-dependent binding response"}, {"measurement": "CS concentration at which the maximal suppressive effect on TRU-016 production was reached", "setting": "[2]; CHO-K1", "value": 200, "unit": "µM"}, {"measurement": "Average ICA (10^6 cells * days/mL) ± SD", "setting": "[2]; CS 25 μM", "value": "40.8 ± 0.4 10^6 cells * days/mL"}, {"measurement": "Average Specific Productivity (pg/cell/day) ± SD", "setting": "[2]; CS 25 μM", "value": "10.29 ± 0.18", "unit": "pg/cell/day"}, {"measurement": "Average TRU-016 Produced as a % of Control ± SD", "setting": "[2]; CS 25 μM", "value": "96.7 ± 2.6", "unit": "%"}, {"measurement": "Average TRU-016 Produced (μg/mL) ± SD", "setting": "[2]; CS 25 μM", "value": "419.36 ± 11.1", "unit": "µg/mL"}, {"measurement": "Viability at Harvest (%)", "setting": "[2]; CS 25 μM", "value": "57.7% and 53.0%"}, {"measurement": "Average ICA (10^6 cells * days/mL) ± SD", "setting": "[2]; CS 50 μM", "value": "41.6 ± 0.9 10^6 cells * days/mL"}, {"measurement": "Average Specific Productivity (pg/cell/day) ± SD", "setting": "[2]; CS 50 μM", "value": "10.18 ± 0.45", "unit": "pg/cell/day"}, {"measurement": "Average TRU-016 Produced as a % of Control ± SD", "setting": "[2]; CS 50 μM", "value": "97.5 ± 6.4", "unit": "%"}, {"measurement": "Average TRU-016 Produced (μg/mL) ± SD", "setting": "[2]; CS 50 μM", "value": "422.84 ± 27.8", "unit": "µg/mL"}, {"measurement": "Viability at Harvest (%)", "setting": "[2]; CS 50 μM", "value": 61.3, "unit": "%"}, {"measurement": "Average ICA (10^6 cells * days/mL) ± SD", "setting": "[2]; CS 100 μM", "value": "39.0 ± 0.4 10^6 cells * days/mL"}, {"measurement": "Average Specific Productivity (pg/cell/day) ± SD", "setting": "[2]; CS 100 μM", "value": "10.48 ± 0.07", "unit": "pg/cell/day"}, {"measurement": "Average TRU-016 Produced as a % of Control ± SD", "setting": "[2]; CS 100 μM", "value": "94.3 ± 1.6", "unit": "%"}, {"measurement": "Average TRU-016 Produced (μg/mL) ± SD", "setting": "[2]; CS 100 μM", "value": "408.60 ± 6.9", "unit": "µg/mL"}, {"measurement": "Viability at Harvest (%)", "setting": "[2]; CS 100 μM", "value": "61.2% and 55.1%"}, {"measurement": "Average ICA (10^6 cells * days/mL) ± SD", "setting": "[2]; CS 200 μM", "value": "40.1 ± 2.3 10^6 cells * days/mL"}, {"measurement": "Average Specific Productivity (pg/cell/day) ± SD", "setting": "[2]; CS 200 μM", "value": "10.04 ± 0.69", "unit": "pg/cell/day"}, {"measurement": "Average TRU-016 Produced as a % of Control ± SD", "setting": "[2]; CS 200 μM", "value": "92.7 ± 1.2", "unit": "%"}, {"measurement": "Average TRU-016 Produced (μg/mL) ± SD", "setting": "[2]; CS 200 μM", "value": "401.93 ± 5.0", "unit": "µg/mL"}, {"measurement": "Viability at Harvest (%)", "setting": "[2]; CS 200 μM", "value": "61.8% and 56.4%"}, {"measurement": "Average ICA (10^6 cells * days/mL) ± SD", "setting": "[2]; CS 400 μM", "value": "37.6 ± 0.3 10^6 cells * days/mL"}, {"measurement": "Average Specific Productivity (pg/cell/day) ± SD", "setting": "[2]; CS 400 μM", "value": "10.68 ± 0.28", "unit": "pg/cell/day"}, {"measurement": "Average TRU-016 Produced as a % of Control ± SD", "setting": "[2]; CS 400 μM", "value": "92.6 ± 3.1", "unit": "%"}, {"measurement": "Average TRU-016 Produced (μg/mL) ± SD", "setting": "[2]; CS 400 μM", "value": "401.22 ± 13.3", "unit": "µg/mL"}, {"measurement": "Viability at Harvest (%)", "setting": "[2]; CS 400 μM", "value": "56.1% and 62.4%"}, {"measurement": "Average ICA (10^6 cells * days/mL) ± SD", "setting": "[2]; CS 800 μM", "value": "37.6 ± 1.0 10^6 cells * days/mL"}, {"measurement": "Average Specific Productivity (pg/cell/day) ± SD", "setting": "[2]; CS 800 μM", "value": "10.68 ± 0.40", "unit": "pg/cell/day"}, {"measurement": "Average TRU-016 Produced as a % of Control ± SD", "setting": "[2]; CS 800 μM", "value": "92.5 ± 1.0", "unit": "%"}, {"measurement": "Average TRU-016 Produced (μg/mL) ± SD", "setting": "[2]; CS 800 μM", "value": "401.14 ± 4.1", "unit": "µg/mL"}, {"measurement": "Viability at Harvest (%)", "setting": "[2]; CS 800 μM", "value": "58.1% and 59.7%"}, {"measurement": "average specific productivity of the cells", "setting": "[2]; CS 25-800 μM", "value": "no significant effect"}, {"measurement": "overall cell viability or growth (integral cell area)", "setting": "[2]; CS 25-800 μM", "value": "did not appear to significantly affect"}, {"measurement": "decrease in production of TRU-016 relative to control", "setting": "[2]; CS 25-800 μM, even at the highest concentration of 800 μM", "value": "≤ 7.5", "unit": "%"}]}]}
